Source: patent US8906866B2, “Antibiotic compositions for the treatment of gram negative infections” (priority 2010, dated 2014)

Legend:
E. coli [1] = experiment: MIC50 and MIC90, CLSI broth microdilution, panel of Gram negative strains; format: cell-based, Escherichia coli; design: key: A: a measured MIC value equal to that of polymyxin B; a measured MIC value less than the corresponding MIC value measured for polymyxin B; a measured MIC value greater than the corresponding MIC value measured for polymyxin B; conditions: relative to polymyxin B; some strains multi-drug resistant
Experimental: (§1) MIC testing can be performed according to Clinical and Laboratory Standards Institute (CLSI) M7-A7 (2006) broth microdilution methods. Unless otherwise indicated, MIC values are provided in units of micrograms per milliliter.
(§2) One day prior to testing, individual colonies were isolated by streaking onto rich, non-selective Tryptic Soy agar with 5% lysed sheeps blood (TSAB) with incubation at 35-37° C. for 18-24 hours.
(§3) Cultures were prepared by touching 3-5 colonies into 3 mL of cation-adjusted Mueller Hinton Broth (caMHB) in a 14-mL tube (caMHB was prepared and sterilized according to manufacturer's specifications).
(§4) OD600 of growing cultures was measured and adjusted to approximately 10^5 colony forming units per mL (CFU/mL) in caMHB for MIC inoculation (approximately OD600 0.001).
(§5) Diluted cultures were used to inoculate 50 μL per well in broth microdilution assays (final volume 100 μl per well; compounds were prepared in two-fold dilutions).
(§6) Plates were incubated 16-20 hours at 37° C., with shaking at 200 rpm.
(§7) OD600 was determined for all wells. Growth was defined as OD600>0.1. MICs were defined as the lowest concentration producing no visible turbidity (OD600<0.1).

E. coli 1527 = experiment: MIC against the primary screening panel (broth microdilution); format: cell-based, Escherichia coli; design: key: A: a MIC value measurement that is the same as that observed for polymyxin B; a MIC value measured that is lower than the comparable value observed for polymxin B; a MIC value measured that is higher than the comparable value observed for polymyxin B; conditions: relative to polymyxin B
Experimental: (§8) Antibacterial potency can be assessed by broth microdilution according to CLSI guidelines, plates can be incubated at 37° C., and aeration (rotation at 200 rpm) can be employed. In some assays, surfactant (Survanta, Abbott Laboratories) can be added to give a final concentration of 1, 10 and 40% in caMHB. Native polymyxin A, polymyxin B and the comparator compound of Formula II (polymyxin B decapeptide with an o-chlorophenyl urea tail) were included for comparison.

[2] = system: Gram negative bacterial strains; experiment: Potency and spectrum against a panel of Gram negative bacterial strains; format: cell-based
Description: The potency and spectrum of Compound 5 was studied using a panel of Gram negative bacterial strains.
as §1

A. baum = experiment: MIC50 and MIC90, CLSI broth microdilution, panel of Gram negative strains; format: cell-based, Acinetobacter baumannii; design: key: A: a measured MIC value equal to that of polymyxin B; a measured MIC value less than the corresponding MIC value measured for polymyxin B; a measured MIC value greater than the corresponding MIC value measured for polymyxin B; conditions: relative to polymyxin B; some strains multi-drug resistant
Experimental: as §1, §2, §3, §4, §5, §6, §7

P. aeruginosa #44 [3] = experiment: MIC against P. aeruginosa #44 in polystyrene plate; format: cell-based, Pseudomonas aeruginosa; conditions: range of repeated tests
Experimental: P. aeruginosa #44 were grown in cation adjusted Mueller Hinton Broth (caMHB) (catalog#B12322; Fisher Scientific, Pittsburgh, Pa.) at 37° C. MIC testing was performed according to Clinical and Laboratory Standards Institute [CLSI, formerly National Committee for Clinical Laboratory Standards (NCCLS), Wayne, Pa.] guidelines for broth microdilution. […]

A. baumannii = experiment: MIC50/90 against small panels (n = 35); format: cell-based, Acinetobacter baumannii; design: key: A: a MIC value measurement that is the same as that observed for polymyxin B; a MIC value measured that is lower than the comparable value observed for polymxin B; a MIC value measured that is higher than the comparable value observed for polymyxin B; conditions: small panel n = 35, relative to polymyxin B
Experimental: as §8

E. coli [4] = experiment: MIC50/90 against small panels (n = 35); format: cell-based, Escherichia coli; design: key: A: a MIC value measurement that is the same as that observed for polymyxin B; a MIC value measured that is lower than the comparable value observed for polymxin B; a MIC value measured that is higher than the comparable value observed for polymyxin B; conditions: small panel n = 35, relative to polymyxin B
Experimental: as §8

P. aeru = experiment: MIC50 and MIC90, CLSI broth microdilution, panel of Gram negative strains; format: cell-based, Pseudomonas aeruginosa; design: key: A: a measured MIC value equal to that of polymyxin B; a measured MIC value less than the corresponding MIC value measured for polymyxin B; a measured MIC value greater than the corresponding MIC value measured for polymyxin B; conditions: relative to polymyxin B; some strains multi-drug resistant
Experimental: as §1, §2, §3, §4, §5, §6, §7

P. aeruginosa #44 [5] = experiment: MICs for P. aeruginosa #44 in the presence of surfactant; format: cell-based, Pseudomonas aeruginosa; design: key: A: a MIC value measurement that is the same as that observed for polymyxin B; a MIC value measured that is lower than the comparable value observed for polymxin B; a MIC value measured that is higher than the comparable value observed for polymyxin B; conditions: relative to polymyxin B
Experimental: as §8

P. aeruginosa 44 [6] = experiment: MIC against the primary screening panel (broth microdilution); format: cell-based, Pseudomonas aeruginosa; design: key: A: a MIC value measurement that is the same as that observed for polymyxin B; a MIC value measured that is lower than the comparable value observed for polymxin B; a MIC value measured that is higher than the comparable value observed for polymyxin B; conditions: relative to polymyxin B
Experimental: as §8

P. aeruginosa = experiment: MIC50/90 against small panels (n = 35); format: cell-based, Pseudomonas aeruginosa; design: key: A: a MIC value measurement that is the same as that observed for polymyxin B; a MIC value measured that is lower than the comparable value observed for polymxin B; a MIC value measured that is higher than the comparable value observed for polymyxin B; conditions: small panel n = 35, relative to polymyxin B
Experimental: as §8

K. pneu = experiment: MIC50 and MIC90, CLSI broth microdilution, panel of Gram negative strains; format: cell-based, Klebsiella pneumoniae; design: key: A: a measured MIC value equal to that of polymyxin B; a measured MIC value less than the corresponding MIC value measured for polymyxin B; a measured MIC value greater than the corresponding MIC value measured for polymyxin B; conditions: relative to polymyxin B; some strains multi-drug resistant
Experimental: as §1, §2, §3, §4, §5, §6, §7

P. aeruginosa 44 [7] = experiment: Neutropenic mouse lung infection model; format: in vivo
Experimental: Compound of Formula (Ia) was tested in a murine thigh model. For the thigh model, female CD-1 mice were rendered neutropenic by IP injection on days −4 and −1 with 150 and 100 mg/kg cyclophosphamide, respectively. On day 0 mice were infected with 1×10^7 colony-forming units (cfu) of A. baumannii 1570 in one thigh muscle, and then administered compound SC in a dose ranging from 2 to 12 mg/kg at 1 and 6 hours post-infection.
The mouse lung model was run in the same manner as the thigh infection model, except that mice were infected IN with 1×10^7 cfu of P. aeruginosa 44 on day 0. Doses administered in the lung study ranged from 8 to 20 mg/kg. The ED−3log10 was based on cfu determination from the lung tissue 24 hours post-infection.

K. pneumoniae = experiment: MIC50/90 against small panels (n = 35); format: cell-based, Klebsiella pneumoniae; design: key: A: a MIC value measurement that is the same as that observed for polymyxin B; a MIC value measured that is lower than the comparable value observed for polymxin B; a MIC value measured that is higher than the comparable value observed for polymyxin B; conditions: small panel n = 35, relative to polymyxin B
Experimental: as §8

K. pneumoniae 933 = experiment: MIC against the primary screening panel (broth microdilution); format: cell-based, Klebsiella pneumoniae; design: key: A: a MIC value measurement that is the same as that observed for polymyxin B; a MIC value measured that is lower than the comparable value observed for polymxin B; a MIC value measured that is higher than the comparable value observed for polymyxin B; conditions: relative to polymyxin B
Experimental: as §8

[8] = Acute toxicity testing in rats; format: in vivo, Sprague-Dawley rat; conditions: 1 mg/kg i.v.
Experimental: One female Sprague-Dawley rat was administered a 1 mg/kg dose of the test Compound 5. Clinical observations were taken immediately following the administration of compound and at 0.5, 1, 2 and 4 hours post-dose.

A. baumannii 1570 = experiment: MIC against the primary screening panel (broth microdilution); format: cell-based, Acinetobacter baumannii; design: key: A: a MIC value measurement that is the same as that observed for polymyxin B; a MIC value measured that is lower than the comparable value observed for polymxin B; a MIC value measured that is higher than the comparable value observed for polymyxin B; conditions: relative to polymyxin B
Experimental: as §8

CC(C)C[C@H]1NC(=O)[C@H](CCN)NC(=O)[C@@H](NC(=O)[C@@H](CCN)NC(=O)[C@@H](NC(=O)[C@H](CCN)NC(=O)[C@H]2C[C@@H]2c2ccccc2)C(C)O)CCNC(=O)[C@H](C(C)O)NC(=O)[C@H](CCN)NC(=O)[C@H](CCN)NC(=O)[C@H](C(C)O)NC1=O (single isomer, unassigned) [Compound 5]
E. coli MIC50 (E. coli [1]): C
E. coli MIC90 (E. coli [1]): A
MIC E. coli 1527 (E. coli 1527): A
activity against E. coli, K. pneumonia, P. Aeruginosa and A. baumanni isolates [2]: active
activity against multi-drug resistant strains [2]: active against multi-drug resistant strains
A. baum MIC 50 (A. baum): C
A. baum MIC 90 (A. baum): C
MIC against P. aeruginosa #44 In polystyrene plate (P. aeruginosa #44 [3]): 1-2 micrograms/ml
A. baumannii MIC50 (A. baumannii): C
A. baumannii MIC90 (A. baumannii): C
E. coli MIC50 (E. coli [4]): C
E. coli MIC90 (E. coli [4]): A
P. aeru MIC 50 (P. aeru): A
P. aeru MIC 90 (P. aeru): C
MIC P. aeruginosa #44, 0% surfactant (P. aeruginosa #44 [5]; 0% surfactant): C
MIC P. aeruginosa #44, 10% surfactant (P. aeruginosa #44 [5]; 10% surfactant): B
MIC P. aeruginosa #44, 40% surfactant (P. aeruginosa #44 [5]; 40% surfactant): B
MIC P. aeruginosa 44 (P. aeruginosa 44 [6]): C
P. aeruginosa MIC50 (P. aeruginosa): A
P. aeruginosa MIC90 (P. aeruginosa): C
K. pneu MIC 50 (K. pneu): C
K. pneu MIC 90 (K. pneu): C
Lungs cleared within one log10 of limit of detection (P. aeruginosa 44 [7]; 8 through 20 mg/kg dose levels): Lungs cleared within one log10 of limit of detection
ED−3log10 (P. aeruginosa 44 [7]; neutropenic mouse lung, P. aeruginosa 44, SC, BID×1 d, cfu 24 hours post-infection): 6.35 mg/kg
K. pneumoniae MIC50 (K. pneumoniae): C
K. pneumoniae MIC90 (K. pneumoniae): C
MIC K. pneumoniae 933 (K. pneumoniae 933): C
time by which rat had no clinical signs ([8]; 1 female Sprague-Dawley rat): ≤ 1 h
Acute (anaphylactoid) observations ([8]; female Sprague-Dawley rat): anaphylactoid response was observed
MIC A. baumannii 1570 (A. baumannii 1570): C
